From ChEMBL document CHEMBL1129777, “Novel 6-substituted 2-aminotetralins with potent and selective affinity for the dopamine D3 receptor” (Bioorg Med Chem Lett, 1996) come the findings set out here.

SMILES strings stand for the structures. pKi: −log10 of the molar value.

One experiment addresses D(2) dopamine receptor (Homo sapiens, UniProt P14416). Nature of the experiment: Binding affinity against human Dopamine receptor D2 in mouse LtK- cells using [3H]spiperone. It is filed as cell-based.
The target of a further experiment is D(3) dopamine receptor (Homo sapiens, UniProt P35462). The experiment can be described thus: Binding affinity against human Dopamine receptor D3 in Chinese hamster ovary cells using [3H]spiperone. It counts as cell-based.
D(3) dopamine receptor, sequence (P35462 whole entry): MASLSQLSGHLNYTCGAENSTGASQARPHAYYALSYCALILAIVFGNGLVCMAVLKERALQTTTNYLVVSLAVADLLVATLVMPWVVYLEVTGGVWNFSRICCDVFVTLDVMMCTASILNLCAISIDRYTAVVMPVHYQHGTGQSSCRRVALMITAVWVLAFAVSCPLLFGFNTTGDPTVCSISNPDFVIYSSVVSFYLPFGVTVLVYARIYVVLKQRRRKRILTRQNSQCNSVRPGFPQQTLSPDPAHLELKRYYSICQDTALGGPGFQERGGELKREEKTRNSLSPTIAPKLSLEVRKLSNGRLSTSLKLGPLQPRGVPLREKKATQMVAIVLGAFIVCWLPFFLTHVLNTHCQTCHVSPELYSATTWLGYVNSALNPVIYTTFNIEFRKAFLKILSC

D(2) dopamine receptor, sequence (P14416 whole entry): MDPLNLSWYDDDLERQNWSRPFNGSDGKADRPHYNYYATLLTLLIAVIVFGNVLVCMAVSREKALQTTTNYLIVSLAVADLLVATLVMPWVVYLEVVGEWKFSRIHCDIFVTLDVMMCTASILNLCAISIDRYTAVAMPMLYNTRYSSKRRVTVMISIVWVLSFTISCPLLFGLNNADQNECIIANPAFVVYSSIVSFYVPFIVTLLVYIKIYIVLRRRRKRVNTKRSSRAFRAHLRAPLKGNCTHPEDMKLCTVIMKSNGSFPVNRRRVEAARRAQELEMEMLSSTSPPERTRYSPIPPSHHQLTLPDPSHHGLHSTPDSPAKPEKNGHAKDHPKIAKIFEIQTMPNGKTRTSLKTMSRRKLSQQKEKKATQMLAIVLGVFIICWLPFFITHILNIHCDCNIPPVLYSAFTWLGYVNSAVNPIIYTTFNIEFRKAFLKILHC

The term pKi denotes the Ki on a negative log10 scale, so that one unit is a factor of ten. Higher therefore signals a low Ki. With `CCCN(CCC)[C@@H]1CCc2cc(CS(=O)(=O)c3ccc(OC)cc3)ccc2C1`, the figures for the pKi on D(2) dopamine receptor and at D(3) dopamine receptor were 6.30 and 8.90, respectively.

In the case of `CCCN(CCC)C1CCc2cc(CCc3ccc(O)cc3)ccc2C1` (stereo not given), the pKi is 6.50 at D(2) dopamine receptor and 7.90 at D(3) dopamine receptor.

As for `CCCN(CCC)C1CCc2cc(CCc3ccc(S(C)(=O)=O)cc3)ccc2C1` (stereo not given), the negative logarithm of the Ki (pKi) at D(3) dopamine receptor was 5.80.

Consider `CCCN(CCC)[C@@H]1CCc2c(ccc(C(O)Cc3ccc(Cl)cc3)c2OC)C1` (single isomer, unassigned; isomer I), for which the figures for the negative logarithm of the Ki (pKi) on D(2) dopamine receptor and at D(3) dopamine receptor were 6.50 and 8.20, respectively. In the same order, the values of `CCCN(CCC)C1CCc2cc(CCc3ccc(OC)cc3)ccc2C1` (stereo not given) are 6.60 and 8.50. For the molecule `CCCN(CCC)[C@@H]1CCc2c(ccc(C(O)Cc3ccc(Cl)cc3)c2OC)C1` (stereo in doubt), the negative-log Ki (pKi) is 5.90 at D(2) dopamine receptor and 7.30 on D(3) dopamine receptor. The like results for `CCCN(CCC)C1CCc2cc(CCc3ccccc3)ccc2C1` (stereo not given) were, in that order, 6.40 and 8.40. As for `CCCN(CCC)[C@@H]1CCc2cc(CCc3ccc(/C(C)=N\O)cc3)ccc2C1`, the values for the negative-log Ki (pKi) at D(2) dopamine receptor and at D(3) dopamine receptor were 6.50 and 9.00, respectively. The like results for `CCCN(CCC)[C@@H]1CCc2c(ccc(CCc3ccc(Cl)cc3)c2OC)C1` were, in that order, 6.90 and 8.30.

In the case of `CCCN(CCC)[C@@H]1CCc2c(ccc(CCc3ccc(C(F)(F)F)cc3)c2OC)C1`, the pKi at D(2) dopamine receptor was 7.00; at D(3) dopamine receptor, 8.20. The molecule `CCCN(CCC)C1CCc2cc(CCc3ccc(C(=O)O)cc3)ccc2C1` (stereo not given) gave a pKi on D(3) dopamine receptor of 5.50. As for `CCCN(CCC)C1CCc2cc(CN(C(N)=O)c3ccc(OC)cc3)ccc2C1` (stereo not given), the negative-log Ki (pKi) was 5.20 on D(2) dopamine receptor and 7.60 at D(3) dopamine receptor. The like results for `CCCN(CCC)[C@@H]1CCc2c(ccc(C(O)Cc3ccc(Cl)cc3)c2OC)[C@@H]1C` (stereo not given in full) were, in that order, 6.20 and 7.60. In the same order, the values of `CCCN(CCC)C1CCc2cc(CSc3ccc(OC)cc3)ccc2C1` (stereo not given) are 6.70 and 8.90. At D(3) dopamine receptor, `CCCN(CCC)[C@@H]1CCc2c(ccc(CCc3ccc(NS(C)(=O)=O)cc3)c2OC)C1` showed a pKi of 6.30. With `CCCN(CCC)[C@@H]1CCc2c(OC)cccc2[C@@H]1C`, the figures for the negative logarithm of the Ki (pKi) on D(2) dopamine receptor and at D(3) dopamine receptor were 7.20 and 7.90, respectively. In the same order, the values of `CCCN(CCC)C1CCc2cc(CCc3ccc(C(=O)OCC)cc3)ccc2C1` (stereo not given) are 6.60 and 8.70. The like results for `CCCN(CCC)[C@@H]1CCc2cc(CCc3ccc(C(C)=O)cc3)ccc2C1` were, in that order, 6.10 and 8.50. Consider `CCCN(CCC)[C@@H]1CCc2cc(CS(=O)(=O)c3ccc(I)cc3)ccc2C1`, for which the values for the pKi at D(2) dopamine receptor and on D(3) dopamine receptor were 6.70 and 9.80, respectively.

Consider `CCCN(CCC)C1CCc2cc(CS(=O)(=O)c3ccc(OC)cc3)ccc2C1` (stereo not given), for which the negative-log Ki (pKi) is 6.20 on D(2) dopamine receptor and 8.80 on D(3) dopamine receptor. `CCCN(CCC)[C@@H]1CCc2c(ccc(C(O)Cc3ccc(Cl)c(Cl)c3)c2OC)C1` (stereo not given in full): the pKi on D(3) dopamine receptor is 7.70. In the case of `CCCN(CCC)C1CCc2cc(CCc3ccc(/C(C)=N\O)cc3)ccc2C1` (stereo not given), the pKi on D(2) dopamine receptor was 6.10; at D(3) dopamine receptor, 8.70.

For `CCCN(CCC)C1CCc2cc(CCc3ccc(C(C)=O)cc3)ccc2C1` (stereo not given), the values for the pKi at D(2) dopamine receptor and on D(3) dopamine receptor were 6.00 and 8.40, respectively. Consider `CCCN(CCC)C1CCc2cc(CN(C(=O)OC)c3ccc(OC)cc3)ccc2C1` (stereo not given), for which the pKi was 6.10 at D(2) dopamine receptor and 8.20 on D(3) dopamine receptor.

As to `CCCN(CCC)[C@@H]1CCc2c(ccc(C(O)Cc3ccccc3)c2OC)C1` (stereo not given in full), the pKi on D(2) dopamine receptor is 6.00; on D(3) dopamine receptor, 7.20. Turning to `CCCN(CCC)[C@@H]1CCc2c(ccc(CCc3ccccc3)c2OC)C1`, the pKi on D(3) dopamine receptor is 7.70. Same read-out and setting: as for `CCCN(CCC)C1CCc2cc(CCc3ccc(C(N)=O)cc3)ccc2C1` (stereo not given), the figure is 6.20; as for `CCCN(CCC)[C@@H]1CCc2c(ccc(C(O)Cc3ccc(OC)cc3)c2OC)C1` (stereo not given in full), 7.30. As for `CCCN(CCC)[C@@H]1CCc2cc(CCc3ccc(Cl)cc3)ccc2C1`, the negative logarithm of the Ki (pKi) on D(2) dopamine receptor is 6.40; on D(3) dopamine receptor, 8.40. As for `CCCN(CCC)C1CCc2cc(CN(C(C)=O)c3ccc(OC)cc3)ccc2C1` (stereo not given), the negative logarithm of the Ki (pKi) is 6.20 at D(2) dopamine receptor and 8.10 at D(3) dopamine receptor. In the same order, the values of `CCCN(CCC)[C@H]1CCc2cc(CCc3ccc(Cl)cc3)ccc2C1` are 6.90 and 8.00.
